The test system of one assay is GES1. The experiment in a line: Antiproliferative activity against human GES-1 cells after 48 hrs by MTT assay. In kind it is cell-based. The conditions noted are these: GES1, 48 h. (In general: Tetrazolium dyes change colour on reduction, which living cells bring about.)
The next assay deals with MKN-45. The experiment in a line: Antiproliferative activity against human MKN45 cells after 48 hrs by MTT assay. The assay is classed as functional, cell-based. Conditions: MKN-45, 48 h.
The test system of a further assay is MGC-803. Description: Antiproliferative activity against human MGC803 cells after 48 hrs by MTT assay. In kind it is functional, cell-based. Conditions: MGC-803, 48 h.
The subject of a further assay is NCI-H1650. Description: Antiproliferative activity against human NCI-H1650 cells after 48 hrs by MTT assay. The assay is classed as functional, cell-based. Conditions: NCI-H1650, 48 h.
A further assay deals with A549. The experiment in a line: Antiproliferative activity against human A549 cells after 48 hrs by MTT assay. In kind it is functional, cell-based. The conditions noted are these: A549, 48 h.
Another assay relates to ECa-109 cell line. Description: Antiproliferative activity against human EC109 cells after 48 hrs by MTT assay. In kind it is functional, cell-based. Conditions: ECa-109, 48 h.

Consider ten molecules from ChEMBL document CHEMBL4190339, “Design, synthesis and preliminary biological evaluation of new [1,2,3]triazolo[4,5-d]pyrimidine/thiourea hybrids as antiproliferative agents” (Eur J Med Chem, 2017).

What is called IC50 is the concentration needed to halve the response being measured. A high value points to lower potency.

As to `O=c1[nH]cc(F)c(=O)[nH]1` [FLUOROURACIL], half-maximal inhibition in the assay with GES1 (IC50) was put at 9.02 µM. That is a single-digit micromolar value.
On to `CCCSc1nc(NCCNC(=S)Nc2cccnc2)c2nnn(CCO)c2n1`, for which the IC50 in the assay with MKN-45 is 25 µM; in the assay with MGC-803, more than 64 µM; in the assay on NCI-H1650, 45.9 µM; in the assay on A549, more than 64 µM; in the assay with ECa-109 cell line, 18.2 µM; with GES1, more than 64 µM.
As to `CCCSc1nc(NCCNC(=S)NCc2ccccc2)c2nnn(CCc3ccccc3)c2n1`, the IC50 in the assay on MKN-45 was 22.9 µM; in the assay on MGC-803 it was 17.4 µM; in the assay with NCI-H1650, more than 64 µM; with A549, more than 64 µM; with ECa-109 cell line, 13.8 µM; with GES1 it was 51.3 µM.
With `CCCSc1nc(NCCNC(=S)Nc2cccnc2)c2nnn(Cc3ccccc3)c2n1`, the IC50 was 15.1 µM with MKN-45; 24 µM with MGC-803; 9.56 µM with NCI-H1650; 12 µM in the assay with A549; 10.8 µM in the assay with ECa-109 cell line; 21.9 µM in the assay with GES1.
With `CCCSc1nc(NCCNC(=S)Nc2cccc(Cl)c2)c2nnn(CCc3ccccc3)c2n1`, the IC50 in the assay on MKN-45 worked out at 30.1 µM; in the assay on MGC-803, 27 µM; in the assay with NCI-H1650 it was 17 µM; in the assay on A549 it was 15.8 µM; in the assay with ECa-109 cell line, 11.8 µM; with GES1 it was 60.4 µM.
Consider `CCCCc1ccc(NC(=S)NCCNc2nc(SCCC)nc3c2nnn3CCc2ccccc2)cc1`, for which the IC50 with MKN-45 was more than 64 µM; in the assay with MGC-803 it was 31.2 µM; in the assay on NCI-H1650, 40.9 µM; with A549, more than 64 µM; in the assay with ECa-109 cell line, 18.9 µM; with GES1, more than 64 µM.
Turning to `CCCSc1nc(NCCNC(=S)Nc2cccc(C(F)(F)F)c2)c2nnn(CCc3ccccc3)c2n1`, the IC50 worked out at 35.6 µM in the assay on MKN-45; 33.9 µM in the assay with MGC-803; 24.2 µM in the assay on NCI-H1650; 17.2 µM with A549; 17.8 µM in the assay with ECa-109 cell line; 23.2 µM in the assay with GES1.
For the molecule `CCCSc1nc(NCCNC(=S)Nc2ccccn2)c2nnn(CCc3ccccc3)c2n1`, the IC50 in the assay on MKN-45 was determined as 8.09 µM; in the assay with MGC-803, 11.6 µM; in the assay on NCI-H1650 it was 7.62 µM; in the assay with A549, 5.91 µM; in the assay with ECa-109 cell line, 5.41 µM; in the assay with GES1, 23.1 µM.
Consider `CCCSc1nc(NCCNC(=S)Nc2ccc([N+](=O)[O-])cc2)c2nnn(CCc3ccccc3)c2n1`, for which the IC50 in the assay with MKN-45 is 48.2 µM; in the assay on MGC-803, more than 64 µM; in the assay on NCI-H1650 it was 26.1 µM; in the assay on A549, 39.1 µM; in the assay on ECa-109 cell line, 58.1 µM; in the assay with GES1, 35.2 µM.
Take `CCCSc1nc(NCCNC(=S)Nc2cccnc2)c2nnn(C3CCCC3)c2n1`: the IC50 in the assay with MKN-45 amounted to 13.5 µM; in the assay with MGC-803, 19.2 µM; in the assay on NCI-H1650, 8.99 µM; with A549, 15.1 µM; with ECa-109 cell line, 12.6 µM; with GES1 it was 32.9 µM.
